Experimental data taken from PMC5906745, “Silencing of Chemosensory Protein Gene NlugCSP8 by RNAi Induces Declining Behavioral Responses of Nilaparvata lugens” (Frontiers in Physiology, 2018).
Read-outs that look alike come from different tables or passages of the source.

Key:
NlugCSP8 [1] = biological target: T1, NlugCSP8 (Nilaparvata lugens, UniProt B7TVH4); assay: Fluorescence competitive ligand binding assay with 1-NPN probe
Procedure: The recombinant pET-30a/CSP8 expression plasmid was transformed into Escherichia coli BL21 (DE3) competent cells. After DNA sequencing, a single positive clone was grown in 10 mL Luria-Bertani (LB) medium containing kanamycin (50 μg/mL) with shaking overnight at 220 rpm and 37°C. The culture was diluted to 2 L LB medium (supplemented with 50 μg/mL kanamycin) and grown at 37°C with shaking at 220 rpm until the culture reached the optical density value of ~0.6–0.7 at 600 nm. The recombinant protein expression was induced by the addition of 2 mM IPTG (Isopropyl β-D-1-thiogalactopyranoside), followed by culturing for 4 h at 37°C. The bacterial cells were harvested by centrifugation (10,000 rpm, 10 min) and sonicated. The expressed protein presented in the supernatant as a soluble form. Then, NlugCSP8 purification was performed using a Ni-ion affinity chromatography column (GE Healthcare, Uppsala, Sweden). His-tag was removed from the recombinant protein with the addition of recombinant bovine enterokinase (EK) in the eluted fractions of protein, followed by 16 h incubation at 25°C. After running the digested protein back through the Ni-ion affinity chromatography column, the tag-free protein was obtained in the flow through fraction. Protein expression and purification steps were assessed by 15% SDS-PAGE (sodium dodecyl sulfate-polyacrylamide gel electrophoresis). Finally, purified protein was dialyzed in Tris buffer (pH 5.0) and (pH 7.4). The concentration of purified protein was determined prior to perform ligand-binding specificities of NlugCSP8 with 25 selected ligands at pH 5.0 and pH 7.4.
Fluorescence-based ligand binding assays were performed based on the method described by Sun X. et al. ([2016]). According to previous studies about the rice-specific volatiles (Fujii et al., [2010]; He et al., [2011]; Yang et al., [2014]; Zhang et al., [2014]), 25 potential ligands were selected for the fluorescence binding assays (Table 1). All the ligands used in this study were purchased from Sigma-Aldrich (St. Louis, MO, USA) and stored according to manufacturer instructions. The ligand binding affinity for various ligands was determined by using the 1-NPN (N-phenyl-1-naphthylamine) as a fluorescent probe. RF-5301PC fluorimeter (Shimadzu, Kyoto, Japan) was used for fluorescence binding assay at 25°C with 10 nm slit width and 1 cm light path quartz cuvette for emission and excitation. The 1-NPN/NlugCSP8 mixture was excited using an excitation wavelength of 337 nm, and the fluorescence intensity was recorded between 350 and 600 nm following an established protocol (Ban et al., [2002]). The 1-NPN and all the potential ligands were prepared in spectrophotometric-grade methanol. The binding constant for 1-NPN was measured by adding aliquots of 1 mM 1-NPN into a 2 μM solution of protein in 30 mM Tris-HCL at room temperature. […] For each test, fluorescence measurement was conducted after the reaction was incubated for 2 min at room temperature (Liu et al., [2015]). Three independent measurements were used to obtain the binding data. 1-NPN/NlugCSP8 dissociation constants (Kd) were calculated from Scatchard plots of the binding data using the Prism 5 software (GraphPad, La Jolla, CA, USA). The curves were linearized using the Scatchard plot program (Campanacci et al., [2001]). The dissociation constants of the competitors were determined by using the corresponding IC50-values according to the equation Ki = [IC50]/ (1+[1-NPN]/K1−NPN), where IC50 represents the concentration of ligand which decreases the fluorescence intensity of [1-NPN], [1-NPN] is the free concentration of 1-NPN and K1−NPN is the dissociation constant of the NlugCSP8/1-NPN complex (Ban et al., [2003]; Tian and Zhang, [2016]). For the reader's convenience, data were recalculated as 1/ki × 1,000, for which a larger value designates a stronger ligand binding affinity.

Nilaparvata lugens [2] = assay: H-tube olfactometer behavioral assay; assay type: in vivo; conditions: macropterous adults, vs liquid paraffin
Procedure: BPH behavior responses to different ligands were tested in an H-tube olfactometer similar to which previously used by Yi et al. ([2018]) in our laboratory. The H-tube olfactometer mainly consists of two glass tubes (arms) with gauze at its top end. These two glass tubes were connected by another tube (5 cm in diameter, 20 cm long with a hole of 1 cm in the middle for releasing BPH). Twenty macropterous (10 from each sex) BPH adults were introduced into the H-tube and the number of BPH was counted at 30 min after their introduction. Liquid paraffin was used as in control arm. Rubber septa were absorbed in the liquid paraffin and solutions of the odor molecules to be tested (liquid paraffin+ different concentration of tested volatile) and placed at room temperature. After 24 h, one rubber septa from each control and tested volatile was put in each glass arm. After one replication, rubber septa were changed and three treatments (1, 10, and 100 μl/mL) of tested volatiles against macropterous adults were tested in eight replications. After four replications, the H-tube olfactometer was washed with 75% alcohol and the liquid paraffin rubber septa were placed in another arm to complete the other four replications. The impact of NlugCSP8-dsRNA on the preference of N. lugens was also tested by H-tube olfactometer assays. Corresponding control experiments without dsRNA injection were performed to investigate whether the preference of N. lugens was affected by volatile concentration change. Three treatments of BPH (NlugCSP8-dsRNA injected, GFP-dsRNA injected, and without injection) were tested in four replications. As in case of dsRNA injected insects, the concentration of volatiles that have highly significant attractive results on non-injected insects used for dsCSP8 and dsGFP injected insects. In order to evaluate the best RNAi effect, mRNA levels of NlugCSP8-dsRNA injected insects were determined and compared with the GFP-dsRNA-injected and non-injected insects, prior to H-tube olfactometer bioassay. Based on the findings of previous step, we re-inject the BPH and the individuals with the best post-injection RNAi effect after 7-days, were used in the H-tube olfactometer bioassay. Bioassays were performed under controlled conditions at 26 ± 2°C and 75 ± 5% relative humidity.

Nilaparvata lugens [3] = assay: H-tube olfactometer assay after RNAi (dsRNA-injected BPH); assay type: in vivo; conditions: 10 μl/mL (nerolidol), 100 μl/mL (hexanal); compared with controls
Procedure: BPH behavior responses to different ligands were tested in an H-tube olfactometer similar to which previously used by Yi et al. ([2018]) in our laboratory. The H-tube olfactometer mainly consists of two glass tubes (arms) with gauze at its top end. These two glass tubes were connected by another tube (5 cm in diameter, 20 cm long with a hole of 1 cm in the middle for releasing BPH). Twenty macropterous (10 from each sex) BPH adults were introduced into the H-tube and the number of BPH was counted at 30 min after their introduction. Liquid paraffin was used as in control arm. Rubber septa were absorbed in the liquid paraffin and solutions of the odor molecules to be tested (liquid paraffin+ different concentration of tested volatile) and placed at room temperature. After 24 h, one rubber septa from each control and tested volatile was put in each glass arm. After one replication, rubber septa were changed and three treatments (1, 10, and 100 μl/mL) of tested volatiles against macropterous adults were tested in eight replications. […] In order to evaluate the best RNAi effect, mRNA levels of NlugCSP8-dsRNA injected insects were determined and compared with the GFP-dsRNA-injected and non-injected insects, prior to H-tube olfactometer bioassay. […]

NlugCSP7 = test system: NlugCSP7; design: method as in Yang et al., 2014; conditions: ref Yang et al., 2014; cited from earlier work
NlugCSP8 [4] = biological target: T1, NlugCSP8; assay: Titration of NlugCSP8 with 1-NPN (Scatchard plot); assay type: binding; conditions: read-out: dissociation constant
Procedure: Fluorescence-based ligand binding assays were performed based on the method described by Sun X. et al. ([2016]). According to previous studies about the rice-specific volatiles (Fujii et al., [2010]; He et al., [2011]; Yang et al., [2014]; Zhang et al., [2014]), 25 potential ligands were selected for the fluorescence binding assays (Table 1). All the ligands used in this study were purchased from Sigma-Aldrich (St. Louis, MO, USA) and stored according to manufacturer instructions. The ligand binding affinity for various ligands was determined by using the 1-NPN (N-phenyl-1-naphthylamine) as a fluorescent probe. RF-5301PC fluorimeter (Shimadzu, Kyoto, Japan) was used for fluorescence binding assay at 25°C with 10 nm slit width and 1 cm light path quartz cuvette for emission and excitation. The 1-NPN/NlugCSP8 mixture was excited using an excitation wavelength of 337 nm, and the fluorescence intensity was recorded between 350 and 600 nm following an established protocol (Ban et al., [2002]). The 1-NPN and all the potential ligands were prepared in spectrophotometric-grade methanol. The binding constant for 1-NPN was measured by adding aliquots of 1 mM 1-NPN into a 2 μM solution of protein in 30 mM Tris-HCL at room temperature. […] For each test, fluorescence measurement was conducted after the reaction was incubated for 2 min at room temperature (Liu et al., [2015]). […]

[5] = pH 5.0, calculated from IC50, read-out: Ki
[6] = pH 7.4, calculated from IC50, read-out: Ki
[7] = Ki, pH 5.0, calculated from IC50
[8] = Ki, pH 7.4, calculated from IC50

T1 sequence (B7TVH4 entry or part of it): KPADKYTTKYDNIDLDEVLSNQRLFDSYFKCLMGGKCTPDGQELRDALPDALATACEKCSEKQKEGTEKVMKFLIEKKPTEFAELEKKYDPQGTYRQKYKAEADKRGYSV

| Compound | Ki (NlugCSP8 [1]; [5]) [µM] | IC50 (NlugCSP8 [1]; pH 5.0, read-out: IC50) [µM] | Ki (NlugCSP8 [1]; [6]) [µM] | IC50 (NlugCSP8 [1]; pH 7.4, read-out: IC50) [µM] | IC50 (NlugCSP8 [1]; IC50, pH 5.0) [µM] | IC50 (NlugCSP8 [1]; IC50, pH 7.4) [µM] | Ki (NlugCSP8 [1]; [7]) [µM] | Ki (NlugCSP8 [1]; [8]) [µM] | also measured |
| --- | --- | --- | --- | --- | --- | --- | --- | --- | --- |
| C=CC(C)(O)CCC=C(C)CCC=C(C)C (mixture of isomers) [Nerolidol] | 8.38 | 9.61 | 10 | 12 | – | – | – | – | behavioral response of BPH (Nilaparvata lugens [2]; 10 μl/mL): significant attraction; behavior response of dsCSP8-injected (RNAi) BPH to attractant (Nilaparvata lugens [3]): attraction activity was completely lost and lost; binding affinity with NlugCSP7 (NlugCSP7): weak affinities |
| CC1=CCC2C(C1)C2(C)C (single isomer, unassigned; (+)) [(+)-3-Carene] | 34.8 | 39.9 | 27 | 32.4 | – | – | – | – | – |
| c1ccc(Nc2cccc3ccccc23)cc1 [1-NPN, N-phenyl-1-naphthylamine] | – | – | – | – | – | – | – | – | Kd (NlugCSP8 [4]; pH 5.0): 6.8 µM; Kd (NlugCSP8 [4]; pH 7.4): 4.99 µM |
| C=CC(O)CCCCC (stereo not shown) [1-Octen-3-ol] | 19.2 | 22.1 | 19.4 | 23.3 | – | – | – | – | – |
| CCCCCC(C)O (stereo not shown) [2-Heptanol] | 9.77 | 11.2 | 13.8 | 16.5 | – | – | – | – | behavioral response of BPH (Nilaparvata lugens [2]; concentration not given): significant aversion |
| CCC(O)CC [3-Pentanol] | 27.4 | 31.4 | 19.6 | 23.5 | – | – | – | – | – |
| Cc1ccc(C(C)C)cc1 [4-Isopropyl to luene] | – | – | – | – | 22.7 | 20.3 | 19.8 | 16.9 | – |
| CC1=CC[C@](O)(C(C)C)CC1 [(–)-Terpinen-4-ol] | – | – | – | – | 11.4 | 19 | 9.97 | 15.8 | behavioral response of BPH (Nilaparvata lugens [2]; 1 μl/mL): attractive; behavioral response of BPH (Nilaparvata lugens [2]; 10 μl/mL): attractive |
| CC/C=C\CCO [Cis-3-hexen-1-ol] | – | – | – | – | 38 | 27.5 | 33.1 | 22.9 | – |
| OC1CCCCC1 [Cyclohexanol] | – | – | – | – | 95.5 | 51.2 | 83.3 | 42.7 | – |
| CCCCCCCCCCCC=O [Dodecyl aldehyde] | 28.4 | 32.6 | 12.2 | 14.6 | – | – | – | – | – |
| CCCCCCCCCCCCCCCCCCCC [Eicosane] | 12.2 | 14 | 12.4 | 14.9 | – | – | – | – | – |
| CCCCCCCCCCCCCCCC [Hexadecane] | 23.8 | 27.3 | 15.9 | 19 | – | – | – | – | – |
| C=CC(C)(O)CCC=C(C)C (stereo not shown) [Linalool] | – | – | – | – | 36.9 | 23.4 | 32.2 | 19.5 | – |
| COC(=O)c1ccccc1 [Methyl benzoate] | – | – | – | – | 17.8 | 23.6 | 15.5 | 19.6 | – |
| CCCCCCCCCCCCCCCCCCC [Nonadecane] | 24.6 | 28.3 | 14.3 | 17.2 | – | – | – | – | – |
| C=C(C)[C@H]1CC=C(C)CC1 [R-(+)-limonene] | 12.6 | 14.4 | 13.2 | 15.9 | – | – | – | – | – |
| CC1=CCC(=C(C)C)CC1 [Terpinolene] | – | – | – | – | 31.2 | 25.6 | 27.2 | 21.3 | – |
| CCC/C=C/CO [Trans-2-hexen-1-ol] | – | – | – | – | 18.2 | 25.9 | 15.9 | 21.5 | – |
| CCC/C=C/C=O [Trans-2-hexenal] | – | – | – | – | 11.6 | 28 | < 10 | 23.3 | behavioral response of BPH (Nilaparvata lugens [2]; concentration not given): significant aversion |
| CC1=CC=C(C(C)C)CC1 [α-Terpinene] | – | – | – | – | 16.4 | 16.6 | 14.3 | 13.8 | – |
| CC1=CC[C@@H](C(C)(C)O)CC1 [α-Terpineol] | – | – | – | – | 15.5 | 24.1 | 13.5 | 20.1 | – |
| (–)-Limoonene | 17.8 | 20.4 | 20.4 | 24.4 | – | – | – | – | – |
| Farnesene | 173 | 199 | 44.8 | 53.8 | – | – | – | – | Ki (NlugCSP8 [1]; pH 5.0, calculated from IC50, listed as farnesene, read-out: Ki): > 40 µM; Ki (NlugCSP8 [1]; pH 7.4, calculated from IC50, listed as farnesene, read-out: Ki): > 40 µM |
